# Results: patent US20160089391A1, “Molecular Targets for Cardiovascular Disease” (Temple University-of the Commonwealth System of Higher …, priority 2014, published 2016)
# Residues, ends and D or L forms follow the SMILES beside them.
# Columns and labels:
# mouse thoracic aorta = assay: Endothelium-dependent vascular relaxation to ACh in aortic rings treated ex vivo (multiple-wire myograph); details: for aortic endothelium-dependent vascular relaxation to ACh: aortic rings of HHcy/HG-Cbs−/+ mice preincubated with calpain inhibitor 20 μmol/L for 1 hour; for aortic endothelium-dependent vascular relaxation to ACh / endothelium-dependent vascular relaxation to ACh: p<0.05; for endothelium-dependent vascular relaxation to ACh: aortic rings of HHcy/HG-Cbs−/+ mice preincubated 1 hr with antioxidant (PEG-SOD 150 U/mL, Tempol 1 mmol/L, apocynin 10 μmol/L)
# calpain [1] = details: mouse microvascular endothelial cells (Smolock et al., 2011); cited from earlier work
# aorta of db/db mice = details: supplementation, via the NO pathway (Seto et al., 2010); cited from earlier work
# eNOS-pThr495 = eNOS-pThr495 protein levels in HAECs; assay type: cell-based, human; details: HAECs with DL-Hcy 500 μmol/L and D-Glu 25 mmol/L 48 hrs; GFX 2 μmol/L 30 min; MDL 20 mmol/L 48 hrs; Adv-dnPKCβ2 200 MOI 72 hrs; siRNA 72 hrs
# Procedure: (FIG. 7A). eNOS protein levels in mouse aorta of Cbs^−/+ mice (Left Panel) and HAECs (Right Panel). (FIG. 7B). eNOS-pThr497/495 protein levels in mouse aorta of Cbs^−/+ mice (Left Panel) and in HAECs (Right Panel). At the age of 8-week, Cbs^−/+ mice were fed with a high methionine diet (HM, methionine: 2% w/w) for 8 weeks, and/or injected with streptozotocin (STZ, i.p., 40 mg/kg) for 5 consecutive days starting from the first day of experiment. Mice fed with a control diet (CT, methionine: 0.37% w/w) and injected with vehicle (50 mmol/L citrate buffer) served as controls. Human aortic endothelial cells (HAECs, passage 8-9) were cultured in EC medium which contains 5 mmol/L D-glucose (D-Glu), treated with DL-homocysteine (DL-Hcy, 500 μmol/L) and/or D-Glu (25 mmol/L). (FIG. 7C). eNOS-pThr495 protein levels in HAECs. HAECs (passage 8-9) were cultured in EC medium which contains 5 mmol/L D-glucose (D-Glu), treated with DL-homocysteine (DL-Hcy, 500 μmol/L) and D-Glu (25 mmol/L for 48 hrs with or without non-specific PKC inhibitor GF109203X (GFX) (2 μmol/L, 30 min.); control adenoviruse (Ad-CT, 200 MOI, 72 hrs), dominant negative PKCβ2 adenovirus (Adv-dnPKCβ2, 200 MOI, 72 hrs); μ-calpain siRNA (μ-calpsiRNA, Santa Cruz #sc-29885, 72 hrs), or MDL ([…], 48 hrs, Sigma #M6690). (FIG. 7D). Transfection effect of Adv-dnPKCβ2in HAECs. Cultured HAECs (passage 8, 80% confluence) were treated with 12.5, 25, 50, 100 and 200 MOI Adv-dnPKCβ2 for 48 hrs. n=3, *p<0.05 vs control; †p<0.05 vs DL-Hcy-treated HAECs; ‡p<0.05 vs D-Glu-treated HAECs; #p<0.05 vs DL-Hcy/D-Glu-treated HAECs. Cbs, cystathionine β-synthase; eNOS, endothelial nitric oxide synthase; eNOS-pThr495/497, phosphorylation of eNOS at threonine 497 (mouse)/495 (human).
# Human aortic endothelial cells (HAECs) were cultured in cell culture medium (M199, HyClone) as previously described (Wang et al., 1997, J Biol Chem 272:25380-25385). The HAECs were treated with DL-Hcy (200 or 500 μmol/L) and/or D-glucose (D-Glu, 25 mmol/L) for 24 or 48 hrs in the presence or absence of selected pharmacological inhibitors or siRNA or adenovirus.
# eNOS = target: T1, eNOS (Homo sapiens, UniProt P29474); assay: eNOS activity in intact HAECs (3H-Arg to 3H-citrulline conversion); assay type: cell-based; details: HAECs; L-NAME 100 μmol/L added in the last hour
# T1 construct: endogenous in cells; host or cells: HAECs (human aortic endothelial cells)
# T1 sequence (P29474 2-1203 limits assumed): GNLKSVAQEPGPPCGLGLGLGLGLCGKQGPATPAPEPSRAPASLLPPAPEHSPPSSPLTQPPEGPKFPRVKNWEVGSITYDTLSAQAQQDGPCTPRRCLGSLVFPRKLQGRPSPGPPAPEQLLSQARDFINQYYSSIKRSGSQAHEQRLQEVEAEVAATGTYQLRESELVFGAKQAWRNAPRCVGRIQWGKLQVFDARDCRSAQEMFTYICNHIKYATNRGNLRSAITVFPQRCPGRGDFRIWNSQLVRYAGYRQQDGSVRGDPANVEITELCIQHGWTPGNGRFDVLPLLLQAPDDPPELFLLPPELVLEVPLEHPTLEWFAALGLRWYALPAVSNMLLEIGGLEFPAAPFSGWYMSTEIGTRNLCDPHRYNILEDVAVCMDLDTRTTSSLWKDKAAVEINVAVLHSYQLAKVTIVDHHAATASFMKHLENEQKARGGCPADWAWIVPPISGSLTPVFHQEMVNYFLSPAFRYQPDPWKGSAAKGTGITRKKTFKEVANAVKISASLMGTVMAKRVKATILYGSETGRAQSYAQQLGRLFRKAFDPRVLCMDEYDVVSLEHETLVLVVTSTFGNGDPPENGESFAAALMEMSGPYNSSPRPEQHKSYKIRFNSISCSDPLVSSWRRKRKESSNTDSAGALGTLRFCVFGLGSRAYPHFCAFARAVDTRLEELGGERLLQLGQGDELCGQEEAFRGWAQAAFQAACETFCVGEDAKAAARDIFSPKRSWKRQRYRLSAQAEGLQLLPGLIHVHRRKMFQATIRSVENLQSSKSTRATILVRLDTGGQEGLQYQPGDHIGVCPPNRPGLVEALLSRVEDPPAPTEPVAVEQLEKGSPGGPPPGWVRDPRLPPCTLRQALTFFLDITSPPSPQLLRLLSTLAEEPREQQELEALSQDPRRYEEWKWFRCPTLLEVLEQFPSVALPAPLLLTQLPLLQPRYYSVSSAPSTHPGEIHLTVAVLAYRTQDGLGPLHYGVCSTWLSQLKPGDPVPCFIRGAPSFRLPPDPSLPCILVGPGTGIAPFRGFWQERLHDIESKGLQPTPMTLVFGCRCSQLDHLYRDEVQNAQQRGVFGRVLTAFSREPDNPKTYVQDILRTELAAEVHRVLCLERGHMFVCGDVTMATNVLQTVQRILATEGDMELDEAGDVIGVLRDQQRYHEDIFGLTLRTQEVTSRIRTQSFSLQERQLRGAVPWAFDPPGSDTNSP
# Procedure: (§1) (FIG. 6A). Images of NO. Nitric oxide (NO) production in HAECs was measured by staining intact HAECs with NO marker DAF-FM. N^G-nitro-L-arginine methyl ester (L-NAME, 100 μmol/L, Sigma #N5751) was added in the last hour as a negative control. (FIG. 6B). Quantification of NO. (FIG. 6C). eNOS activity. Human aortic endothelial cells (HAECs) were cultured in EC medium which contains 5 mmol/L D-Glucose (D-Glu), and treated with DL-homocysteine (DL-Hcy, 500 μmol/L) and/or (D-Glu, 25 mmol) without or with MDL28170 (MDL) for 48 hrs, CTsiRNA or μ-calpsiRNA for 72 hrs. L-NAME (100 μmol/L) was added in the last hour. NO was measured by staining intact HAECs with NO marker (DAF-FM, 10 μmol/L, Sigma #D2321, 30 mins.). Endothelial nitric oxide synthase (eNOS) activity was assessed by measuring of ^3H-L-arginine conversion to ^3H-citrulline in intact HAECs. n=3, *p<0.05 vs control; †p<0.05 vs DL-Hcy-treated HAECs; ‡p<0.05 vs D-Glu-treated HAECs; #p<0.05 vs DL-Hcy/D-Glu-treated HAECs. DAF-FM, 4-Amino-5-methylamino-2′,7′-difluorescein; CTsiRNA, control siRNA; HG, hyperglycemia; HHcy, hyperhomocysteinemia; μ-calpsiRNA, μ-calpain siRNA.
# (§2) HAECs treated with or without DL-Hcy and/or D-Glu for 48 hrs were stained with 4-Amino-5-Methylamino-2′,7′-Difluorofluorescein (DAF-FM). To explore the role of calpain, especially μ-calpain, the DL-Hcy/D-Glu-treated HAECs were also treated with MDL28170 (MDL, 20 μmol/L) and μ-calpain siRNA, respectively. HAECs treated with L-NAME (100 μmol/L) for 1 hr before DAF-FM staining were used as negative controls. eNOS activity in HAECs was determined by measuring the conversion of ^3H-Arg to ^3H-citrulline in intact cells as previous described (Jiang et al., 2005, Arterioscl Throm Vas 25:2515-2521).
# NO production in HAECs = NO production in HAECs by DAF-FM staining; assay type: cell-based, human; details: HAECs; L-NAME 100 μmol/L added in the last hour (negative control)
# Procedure: as §1, §2
# calpain [2] = assay: t-BOC calpain activity assay in intact HAECs; assay type: cell-based, human; details: HAECs treated with DL-Hcy 500 μmol/L and D-Glu 25 mmol/L; PEG-SOD 150 U/mL, 48 hrs
# Procedure: (FIG. 5A). In situ .O2^− production in aorta. (FIG. 5B). Nitrotyrosine (3-NT) levels. Aortic paraffin-cross sections (7 μm) from Cbs^−/+ mice were stained with 3-NT antibody and 3,3′-diaminobenzidine (DAB, brown). (FIG. 5C). Urinary 8-isoprostane levels. At the age of 8-week, Cbs^+/+ and Cbs^−/+ mice were fed with a high methionine diet (HM, methionine: 2% w/w) for 8 weeks, and/or injected with streptozotocin (STZ, i.p., 40 mg/kg) for 5 consecutive days starting from the first day of experiment. Mice fed with a control diet (CT, methionine: 0.37% w/w) and injected with vehicle (50 mM citrate buffer) served as controls. Aortic cryo-cross sections (30 μm) from Cbs^−/+ mice were stained with the superoxide marker dihydroethidium (DHE, 3 μmol/L, 30 mins.). Urine was collected from 24 hrs metabolic cage. (FIG. 5D). Endothelium-dependent vascular relaxation in HHcy/HG CBS^−/+ mouse aorta in the presence of antioxidants. Arterial rings were pre-contracted with phenylephrine (1 μmol/L) and examined for relaxation to cumulative additions of ACh in the aorta of STZ-treated Cbs^−/+ mice on HM diet. The arterial rings were preincubated with antioxidants polyethylene glycol superoxide dismutase (PEG-SOD, 150 U/mL, Sigma #S9549), Tempol (1 mmol/L, Sigma #176141), or apocynin (10 μmol/L, Sigma #W508454) for 1 hr. n=3-5. *p<0.05 vs vehicle-treated Cbs^−/+ mice on CT diet; †p<0.05 vs vehicle-treated Cbs^−/+ mice on HM diet; ‡p<0.05 vs STZ-treated Cbs^−/+ mice on CT diet; #p<0.05 vs STZ-treated Cbs^−/+ mice on HM diet. (FIG. 5E). […] Calpain activity was measured by the fluorescent substrate t-BOC-Leu-Met-CMAC (T-BOC, 10 μmol/L, 30 min) Human aortic endothelial cells (HAECs, passage 8-9) were cultured in EC medium which contains 5 mmol/L D-glucose (D-Glu), treated with DL-homocysteine (DL-Hcy, 500 μmol/L) and/or D-Glu (25 mmol/L) with or without […] (150 U/mL) or MDL28170 (MDL, 20 μmol/L) for 48 hrs, or CTsiRNA and μ-calpsiRNA for 72 hrs. […] Transfection effect of μ-calpsiRNA in HAECs was detected by Western blot after transfected with the siRNA for indicated time. […]
compound,measurement,setting,value
"CSCC[C@@H](C=O)NC(=O)[C@H](CC(C)C)NC(=O)[C@H](CC(C)C)NC(C)=O [ALLM, N-Acetyl-Leu-Leu-Met-CHO] (Ac-Leu-Leu-Met-aldehyde)",aortic endothelium-dependent vascular relaxation to ACh,mouse thoracic aorta,markedly improved
CN(C)CCCn1cc(C2=C(c3c[nH]c4ccccc34)C(=O)NC2=O)c2ccccc21 [BIM-1],calpain activity,calpain [1],decreased
Nc1nc2ncc(CNc3ccc(C(=O)N[C@@H](CCC(=O)O)C(=O)O)cc3)nc2c(=O)[nH]1 [Folic acid],endothelium-dependent vascular relaxation responses to ACh,aorta of db/db mice,improved
"CN(C)CCCn1cc(C2=C(c3c[nH]c4ccccc34)C(=O)NC2=O)c2ccccc21 [GFX, GF109203X]",HHcy/HG-induced eNOS-pThr495,eNOS-pThr495,completely rescued
"COC(=O)[C@@H](N)CCCNC(=N)N[N+](=O)[O-] [L-NAME, N^G-nitro-L-arginine methyl ester]",eNOS activity,eNOS,10%
same,vascular relaxation response to ACh,"mouse thoracic aorta; aorta of all groups (Cbs+/+ and Cbs−/+, HHcy and/or HG), L-NAME 100 μmol/L, 30 min",completely abolished
same,NO generation,NO production in HAECs,5.7%
CC1(C)CC(O)CC(C)(C)N1[O] [Tempol],endothelium-dependent vascular relaxation to ACh,mouse thoracic aorta,significantly improved
COc1cc(C(C)=O)ccc1O [apocynin],endothelium-dependent vascular relaxation to ACh,mouse thoracic aorta,significantly improved
CCCC[C@@H](C=O)NC(=O)[C@H](CC(C)C)NC(=O)OCc1ccccc1 [calpeptin],aortic endothelium-dependent vascular relaxation to ACh,mouse thoracic aorta,markedly improved
polyethylene glycol superoxide dismutase [PEG-SOD],decrease of HHcy/HG-induced calpain activation,calpain [2],49%
same,endothelium-dependent vascular relaxation to ACh,mouse thoracic aorta,significantly improved
